Results from patent US20260209250A1, “CRYSTAL FORM OF KRAS G12D INHIBITOR AND PREPARATION METHOD THEREFOR” (priority 2022, published 2026).

Legend:
[1] = test system: ERK phosphorylation in AGS cells; assay: Inhibition of ERK phosphorylation in AGS cells (HTRF method); format: cell-based; conditions: Homo sapiens, 1 h incubation, phosphorylated ERK/total ERK ratio
Description: In the experiment, the inhibitory effect of the compound on the KRAS target was evaluated by assessing the inhibitory effect of compound 1-p1 on ERK phosphorylation in cells and based on the IC50 value.
AGS cells (Nanjing Cobioer, CBP60476) were cultured in an RPMI1640 (Hyclone, SH30809.01) complete culture medium containing 10% fetal bovine serum. On the first day of the experiment, the AGS cells were seeded into a 96-well plate with a complete culture medium at a density of 40000 cells/well, with each well containing 190 μL of a cell suspension. The plate was incubated overnight in a 5% CO2 cell incubator at 37° C.
The next day, the test compound, serially diluted in a complete culture medium, was added at 10 μL/well. The final concentrations of the compound were 9 concentration points obtained by 5-fold serial dilution from 10 μM. A blank control containing 0.5% DMSO was set. The plate was incubated in a 5% CO2 cell incubator at 37° C. for 1 h. […]
On the third day, the fluorescence values at an excitation wavelength of 337 nm and emission wavelengths of 665 nm and 620 nm were obtained using an ENVISION multi-mode microplate reader (PerkinElmer, ENVISION).
The IC50 value for the inhibitory activity of the compound was calculated using Graphpad Prism software based on the compound concentration and the phosphorylated ERK/total ERK ratio.

AGS cells = assay: Inhibition of 3D proliferation of AGS cells; format: cell-based; conditions: Homo sapiens, 120 h, CellTiter-Glo 3D
Description: (§1) The inhibitory effect of compound 1-p1 on the KRAS target was evaluated by assessing the inhibitory effect of compound 1-p1 on the 3D proliferation of GP2d and AGS cells.
(§2) AGS cells (Nanjing Cobioer, CBP60476) were cultured in a complete culture medium, namely an RPMI1640 culture medium (Hyclone, SH30809.01) containing 10% fetal bovine serum (Corning, 35-076-CV). On the first day of the experiment, the AGS cells were seeded into a 96-well low-adsorption plate (Corning, CLS7007-24EA) with a complete culture medium at a density of 1000 cells/well, with each well containing 90 μL of a cell suspension. The plate was centrifuged at 2000 rpm for 5 min at room temperature and then incubated overnight in a 5% CO2 cell incubator at 37° C.
(§3) The next day, the test compound, serially diluted in a complete culture medium, was added at 10 μL/well. The final concentrations of the compound for GP2d cells were 9 concentration points obtained by 3-fold serial dilution from 1 μM, and the final concentrations of the compound for AGS cells were 9 concentration points obtained by 3-fold serial dilution from 10 μM. A blank control containing 0.5% DMSO was set for both types of cells. […] The luminescence signal values were obtained using a multi-mode microplate reader (PerkinElmer, ENVISION).
(§4) The IC50 values for the inhibitory activity of the compound were calculated using Graphpad Prism software.

GP2d cells = assay: Inhibition of 3D proliferation of GP2d cells; format: cell-based; conditions: 120 h, CellTiter-Glo 3D
Description: as §1
as §2, with “GP2d” for “AGS”, “CBP60010)” for “CBP60476)”, “a DMEM/high glucose” for “an RPMI1640”, “SH30243.01)” for “SH30809.01)”
as §3, §4

[2] = Crystal form stability study (influencing factor experiments); format: physicochemical
Description: Samples of the crystal forms A, B, C, I, J, and K of the compound represented by formula (I) were taken, spread in open containers, and left to stand under conditions of light exposure (4500 Lux), high temperatures (40° C. and 60° C.), and high humidities (RH 75% and RH 92.5%) for 30 days to investigate their stability, and the results are shown in Table 16.

[3] = Long-term/accelerated stability; format: physicochemical
[4] = 40° C., 10 days, open container
[5] = 40° C., 30 days, open container
[6] = 60° C., 10 days, open container
[7] = 60° C., 30 days, open container
[8] = 75% RH, 10 days, open container
[9] = 75% RH, 30 days, open container
[10] = 92.5% RH, 5 days, open container
[11] = 92.5% RH, 10 days, open container
[12] = 92.5% RH, 30 days, open container
[13] = light exposure (4500 Lux), 5 days, open container
[14] = light exposure (4500 Lux), 10 days, open container
[15] = light exposure (4500 Lux), 30 days, open container

Q: With `CCc1c(F)ccc2cc(O)cc(-c3nc4c5c(nc(OC[C@@]67CCCN6C[C@H](F)C7)nc5c3F)N3C[C@H]5CC[C@H](N5)[C@H]3CO4)c12` [Compound 1-p1, 5-Ethyl-6-fluoro-4-((5aS,6S,9R)-1-fluoro-12-(((2R,7aS)-2-fluorotetrahydro-1H-pyrrolizin-7a(5H)-yl)methoxy)-5a,6,7,8,9,10-hexahydro-5H-4-oxa-3,10a,11,13,14-pentaaza-6,9-methanonaphtho[1,8-ab]heptalen-2-yl)naphthalen-2-ol] as the compound, how does the IC50 [1] read?
A: 0.4 nM

Q: What about the IC50 (AGS cells) of the same compound?
A: 5.8 nM

Q: And the IC50 (GP2d cells)?
A: 0.9 nM

Q: For `CCc1c(F)ccc2cc(O)cc(-c3nc4c5c(nc(OC[C@@]67CCCN6C[C@H](F)C7)nc5c3F)N3C[C@H]5CC[C@H](N5)[C@H]3CO4)c12` [Crystal form K, 5-Ethyl-6-fluoro-4-((5aS,6S,9R)-1-fluoro-12-(((2R,7aS)-2-fluorotetrahydro-1H-pyrrolizin-7a(5H)-yl)methoxy)-5a,6,7,8,9,10-hexahydro-5H-4-oxa-3,10a,11,13,14-pentaaza-6,9-methanonaphtho[1,8-ab]heptalen-2-yl)naphthalen-2-ol], which Color and state ([2]; 40° C., 5 days, open container) is on record?
A: Off-white solid

Q: And the Crystal form ([2]; 40° C., 5 days, open container)?
A: Did not change

Q: And the Purity % ([2]; 40° C., 5 days, open container)?
A: 99.2%

Q: And the Color and state [2, 4]?
A: Off-white solid

Q: What about the Crystal form [2, 4] of the same compound?
A: Did not change

Q: What about the Purity % [2, 4] of the same compound?
A: 98.5%

Q: What about the Color and state [2, 5] of the same compound?
A: Off-white solid

Q: And the Crystal form [2, 5]?
A: Did not change

Q: What about the Purity % [2, 5] of the same compound?
A: 97.0%

Q: What about the Color and state ([2]; 60° C., 5 days, open container) of the same compound?
A: Off-white solid

Q: And the Crystal form ([2]; 60° C., 5 days, open container)?
A: Did not change

Q: And the Purity % ([2]; 60° C., 5 days, open container)?
A: 99.1%

Q: What about the Color and state [2, 6] of the same compound?
A: Off-white solid

Q: What about the Crystal form [2, 6] of the same compound?
A: Did not change

Q: And the Purity % [2, 6]?
A: 98.5%

Q: And the Color and state [2, 7]?
A: Off-white solid

Q: And the Crystal form [2, 7]?
A: Did not change

Q: What about the Purity % [2, 7] of the same compound?
A: 97.0%

Q: What about the Color and state ([2]; 75% RH, 5 days, open container) of the same compound?
A: Off-white solid

Q: What about the Crystal form ([2]; 75% RH, 5 days, open container) of the same compound?
A: Did not change

Q: And the Purity % ([2]; 75% RH, 5 days, open container)?
A: 99.8%

Q: And the Color and state [2, 8]?
A: Off-white solid

Q: And the Crystal form [2, 8]?
A: Did not change

Q: What about the Purity % [2, 8] of the same compound?
A: 99.7%

Q: What about the Color and state [2, 9] of the same compound?
A: Off-white solid

Q: And the Crystal form [2, 9]?
A: Did not change

Q: What about the Purity % [2, 9] of the same compound?
A: 99.7%

Q: And the Color and state [2, 10]?
A: Off-white solid

Q: What about the Crystal form [2, 10] of the same compound?
A: Did not change

Q: What about the Purity % [2, 10] of the same compound?
A: 99.8%

Q: What about the Color and state [2, 11] of the same compound?
A: Off-white solid

Q: What about the Crystal form [2, 11] of the same compound?
A: Did not change

Q: And the Purity % [2, 11]?
A: 99.7%

Q: What about the Color and state [2, 12] of the same compound?
A: Off-white solid

Q: And the Crystal form [2, 12]?
A: Did not change

Q: What about the Purity % [2, 12] of the same compound?
A: 99.7%

Q: And the Color and state ([2]; Initial, 0 days)?
A: Off-white solid

Q: What about the Crystal form ([2]; Initial, 0 days) of the same compound?
A: Crystal form K

Q: And the Purity % ([2]; Initial, 0 days)?
A: 99.8%

Q: And the “Physical and chemical properties (conclusion of influencing factor experiments)” value ([2]; high temperatures and high humidities for 30 days)?
A: good physical and chemical properties

Q: And the Color and state [2, 13]?
A: Off-white solid

Q: What about the Crystal form [2, 13] of the same compound?
A: Did not change

Q: And the Purity % [2, 13]?
A: 99.3%

Q: What about the Color and state [2, 14] of the same compound?
A: Off-white solid

Q: What about the Crystal form [2, 14] of the same compound?
A: Did not change

Q: What about the Purity % [2, 14] of the same compound?
A: 98.9%

Q: What about the Color and state [2, 15] of the same compound?
A: Off-white solid

Q: What about the Crystal form [2, 15] of the same compound?
A: Did not change

Q: What about the Purity % [2, 15] of the same compound?
A: 97.9%

Q: And the “Purity % 1 month” value ([3]; 25° C./60% RH)?
A: 99.7%

Q: And the “Purity % 2 months” value ([3]; 25° C./60% RH)?
A: 99.8%

Q: And the “Purity % 6 months” value ([3]; 25° C./60% RH)?
A: 99.7%

Q: And the “Purity % Initial” value ([3]; 25° C./60% RH)?
A: 99.8%

Q: What about the “Purity % 1 month” value ([3]; 40° C./75% RH) of the same compound?
A: 99.7%

Q: What about the “Purity % 2 months” value ([3]; 40° C./75% RH) of the same compound?
A: 99.7%

Q: And the “Purity % 6 months” value ([3]; 40° C./75% RH)?
A: 99.4%

Q: What about the “Purity % Initial” value ([3]; 40° C./75% RH) of the same compound?
A: 99.8%
